# In ChEMBL document CHEMBL1201862, “PubChem BioAssay data set” (2004):
# Active and inactive are the calls of the source.
# Tests used:
# [1] = microbe, parasite or virus in culture; assay type: functional; conditions: Mycobacterium tuberculosis
# [2] = system: H9c2; test: cells; assay type: functional, cell-based; conditions: Rattus norvegicus, H9c2, Myocardium;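 note: confirmatory concentration-response retest of ultra-high-throughput screening hits for modulation of myocardial damage; cell death induced by hydrogen peroxide oxidative stress; compound pretreatment for 60 min then peroxide exposure for 2 h; potency is for protecting the cells against peroxide damage rather than for killing them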
# [3] = target: T1, Corticotropin-releasing factor receptor 2/Corticotropin-releasing factor-binding protein (Homo sapiens, UniProt P24387+Q13324); test: activators of CRF receptor 2 with binding protein – uHTS hits, confirmation (AID 602473); assay type: functional; conditions: read-out: EC50_Mean
# T1 sequence (Q13324 whole entry): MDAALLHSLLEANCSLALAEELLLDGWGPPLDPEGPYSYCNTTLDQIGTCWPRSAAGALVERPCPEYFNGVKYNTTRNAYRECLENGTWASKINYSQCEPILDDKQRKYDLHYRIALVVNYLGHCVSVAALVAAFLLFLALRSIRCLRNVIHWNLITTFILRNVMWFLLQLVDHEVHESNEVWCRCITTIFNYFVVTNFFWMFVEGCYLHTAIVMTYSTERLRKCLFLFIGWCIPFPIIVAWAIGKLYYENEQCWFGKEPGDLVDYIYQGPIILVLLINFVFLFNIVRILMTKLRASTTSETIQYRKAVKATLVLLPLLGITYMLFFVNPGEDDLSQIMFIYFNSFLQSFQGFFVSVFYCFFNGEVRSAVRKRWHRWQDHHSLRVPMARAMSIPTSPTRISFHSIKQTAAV
# T1 sequence (P24387 whole entry): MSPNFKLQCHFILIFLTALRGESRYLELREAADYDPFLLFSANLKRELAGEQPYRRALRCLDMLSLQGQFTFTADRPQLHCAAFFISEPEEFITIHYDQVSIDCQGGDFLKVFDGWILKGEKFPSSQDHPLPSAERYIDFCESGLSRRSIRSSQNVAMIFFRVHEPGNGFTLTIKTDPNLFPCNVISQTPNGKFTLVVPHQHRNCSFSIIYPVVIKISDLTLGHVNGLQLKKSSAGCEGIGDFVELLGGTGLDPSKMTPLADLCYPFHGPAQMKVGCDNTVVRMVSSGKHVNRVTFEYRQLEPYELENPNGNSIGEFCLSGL
# [4] = target: T1, Corticotropin-releasing factor receptor 2/Corticotropin-releasing factor-binding protein; test: Dose Response confirmation of uHTS hits for small molecule antagonists of the CRF-binding protein and CRF-R2 receptor complex.; assay type: functional; conditions: read-out: IC50_Mean
# [5] = target: Cytochrome P450 3A4 (Homo sapiens, UniProt P08684);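 note: CYP3A4 tested as one member of a cytochrome P450 panel screen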
# Chain of Cytochrome P450 3A4 (P08684 whole entry): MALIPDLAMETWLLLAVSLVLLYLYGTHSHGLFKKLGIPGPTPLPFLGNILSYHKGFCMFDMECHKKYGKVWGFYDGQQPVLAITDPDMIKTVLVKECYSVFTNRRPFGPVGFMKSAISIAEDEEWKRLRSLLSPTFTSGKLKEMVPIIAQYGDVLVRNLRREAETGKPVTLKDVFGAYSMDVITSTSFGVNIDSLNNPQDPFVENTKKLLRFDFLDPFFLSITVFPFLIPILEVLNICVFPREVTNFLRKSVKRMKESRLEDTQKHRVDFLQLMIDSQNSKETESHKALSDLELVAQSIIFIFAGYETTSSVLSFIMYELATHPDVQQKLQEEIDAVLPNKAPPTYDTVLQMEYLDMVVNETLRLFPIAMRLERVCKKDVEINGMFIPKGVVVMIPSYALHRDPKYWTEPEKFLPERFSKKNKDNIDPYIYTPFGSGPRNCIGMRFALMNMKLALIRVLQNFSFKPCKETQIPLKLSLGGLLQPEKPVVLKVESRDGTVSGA
# [6] = target: Glucose-6-phosphate 1-dehydrogenase (Homo sapiens, UniProt P11413); test: inhibition of Homo sapiens G6PD, dose series – biochemical, fluorescence, selectivity assay for P. falciparum G6PD inhibitor project, dose response (AID 504792); assay type: functional
# Chain of Glucose-6-phosphate 1-dehydrogenase (P11413 whole entry): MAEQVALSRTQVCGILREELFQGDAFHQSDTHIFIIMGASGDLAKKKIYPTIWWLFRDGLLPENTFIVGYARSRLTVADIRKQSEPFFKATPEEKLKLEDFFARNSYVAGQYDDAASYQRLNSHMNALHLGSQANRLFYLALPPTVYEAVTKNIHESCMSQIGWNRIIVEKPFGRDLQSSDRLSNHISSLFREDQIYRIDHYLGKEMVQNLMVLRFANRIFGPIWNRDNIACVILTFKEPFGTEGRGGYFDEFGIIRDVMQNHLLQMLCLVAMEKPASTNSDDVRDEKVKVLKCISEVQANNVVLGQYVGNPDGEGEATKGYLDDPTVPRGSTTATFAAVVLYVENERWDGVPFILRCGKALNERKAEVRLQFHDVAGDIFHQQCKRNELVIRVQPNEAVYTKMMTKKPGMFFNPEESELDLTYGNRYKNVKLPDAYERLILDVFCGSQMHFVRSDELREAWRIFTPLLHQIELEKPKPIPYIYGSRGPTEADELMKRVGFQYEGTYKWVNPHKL
# [7] = target: FAD-linked sulfhydryl oxidase ALR (Homo sapiens, UniProt P55789); test: ALR-catalysed DTT oxidation blockers – biochemical, H2O2 detection, luminescence, cherry-pick, dose response (AID 493248)
# Chain of FAD-linked sulfhydryl oxidase ALR (P55789 whole entry): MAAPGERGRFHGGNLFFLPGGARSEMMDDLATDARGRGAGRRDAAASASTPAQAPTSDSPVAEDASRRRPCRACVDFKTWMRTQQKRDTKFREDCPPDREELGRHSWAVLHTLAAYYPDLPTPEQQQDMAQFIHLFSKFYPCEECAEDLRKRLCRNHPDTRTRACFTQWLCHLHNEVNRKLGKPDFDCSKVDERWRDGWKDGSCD
# [8] = target: DNA dC->dU-editing enzyme APOBEC-3G (Homo sapiens, UniProt Q9HC16); test: Dose Response confirmation of small molecule APOBEC3G DNA Deaminase Inhibitors via a fluorescence-based single-stranded DNA deaminase assay. [Related pubchem assays (depositor defined):AID493012, AID493028]; assay type: functional
# Chain of DNA dC->dU-editing enzyme APOBEC-3G (Q9HC16 whole entry): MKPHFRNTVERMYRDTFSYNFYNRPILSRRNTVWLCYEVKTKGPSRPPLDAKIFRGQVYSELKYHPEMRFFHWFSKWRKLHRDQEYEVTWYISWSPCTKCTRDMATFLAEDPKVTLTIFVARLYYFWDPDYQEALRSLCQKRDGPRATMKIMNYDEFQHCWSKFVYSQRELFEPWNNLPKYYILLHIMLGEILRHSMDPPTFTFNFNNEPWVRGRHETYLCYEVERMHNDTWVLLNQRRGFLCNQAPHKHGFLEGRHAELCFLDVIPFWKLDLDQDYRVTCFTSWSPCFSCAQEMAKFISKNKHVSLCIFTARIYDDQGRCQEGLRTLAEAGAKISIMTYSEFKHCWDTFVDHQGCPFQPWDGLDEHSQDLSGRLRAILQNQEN
# [9] = Trypanosoma cruzi growth suppression in host cells – NIH3T3 host cells, beta-gal luminescence, confirmation (AID 2044); assay type: functional, cell-based;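 note: intracellular parasites grown in NIH/3T3 mouse fibroblasts as host cells; luminescent beta-galactosidase reporter signal from transgenic T. cruzi replicating inside host cells; inhibitors lower the luminescence signal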
# [10] = NIH3T3 cell viability loss – ATP luminescence, mouse fibroblasts, counter-screen, dose response (AID 2010); assay type: functional, cell-based;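 note: cells exposed to compound for about 90 hours before reading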
# [11] = target: Fatty acid synthase (Homo sapiens, UniProt P49327); test: inhibition of human FAS-TE enzyme activity – biochemical, kinetic fluorescence intensity, dose response (AID 624326); assay type: functional;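 note: rate of fluorescence rise from hydrolysis of a fluorogenic O-methyl fluorescein ester substrate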
# Chain of Fatty acid synthase (P49327 whole entry): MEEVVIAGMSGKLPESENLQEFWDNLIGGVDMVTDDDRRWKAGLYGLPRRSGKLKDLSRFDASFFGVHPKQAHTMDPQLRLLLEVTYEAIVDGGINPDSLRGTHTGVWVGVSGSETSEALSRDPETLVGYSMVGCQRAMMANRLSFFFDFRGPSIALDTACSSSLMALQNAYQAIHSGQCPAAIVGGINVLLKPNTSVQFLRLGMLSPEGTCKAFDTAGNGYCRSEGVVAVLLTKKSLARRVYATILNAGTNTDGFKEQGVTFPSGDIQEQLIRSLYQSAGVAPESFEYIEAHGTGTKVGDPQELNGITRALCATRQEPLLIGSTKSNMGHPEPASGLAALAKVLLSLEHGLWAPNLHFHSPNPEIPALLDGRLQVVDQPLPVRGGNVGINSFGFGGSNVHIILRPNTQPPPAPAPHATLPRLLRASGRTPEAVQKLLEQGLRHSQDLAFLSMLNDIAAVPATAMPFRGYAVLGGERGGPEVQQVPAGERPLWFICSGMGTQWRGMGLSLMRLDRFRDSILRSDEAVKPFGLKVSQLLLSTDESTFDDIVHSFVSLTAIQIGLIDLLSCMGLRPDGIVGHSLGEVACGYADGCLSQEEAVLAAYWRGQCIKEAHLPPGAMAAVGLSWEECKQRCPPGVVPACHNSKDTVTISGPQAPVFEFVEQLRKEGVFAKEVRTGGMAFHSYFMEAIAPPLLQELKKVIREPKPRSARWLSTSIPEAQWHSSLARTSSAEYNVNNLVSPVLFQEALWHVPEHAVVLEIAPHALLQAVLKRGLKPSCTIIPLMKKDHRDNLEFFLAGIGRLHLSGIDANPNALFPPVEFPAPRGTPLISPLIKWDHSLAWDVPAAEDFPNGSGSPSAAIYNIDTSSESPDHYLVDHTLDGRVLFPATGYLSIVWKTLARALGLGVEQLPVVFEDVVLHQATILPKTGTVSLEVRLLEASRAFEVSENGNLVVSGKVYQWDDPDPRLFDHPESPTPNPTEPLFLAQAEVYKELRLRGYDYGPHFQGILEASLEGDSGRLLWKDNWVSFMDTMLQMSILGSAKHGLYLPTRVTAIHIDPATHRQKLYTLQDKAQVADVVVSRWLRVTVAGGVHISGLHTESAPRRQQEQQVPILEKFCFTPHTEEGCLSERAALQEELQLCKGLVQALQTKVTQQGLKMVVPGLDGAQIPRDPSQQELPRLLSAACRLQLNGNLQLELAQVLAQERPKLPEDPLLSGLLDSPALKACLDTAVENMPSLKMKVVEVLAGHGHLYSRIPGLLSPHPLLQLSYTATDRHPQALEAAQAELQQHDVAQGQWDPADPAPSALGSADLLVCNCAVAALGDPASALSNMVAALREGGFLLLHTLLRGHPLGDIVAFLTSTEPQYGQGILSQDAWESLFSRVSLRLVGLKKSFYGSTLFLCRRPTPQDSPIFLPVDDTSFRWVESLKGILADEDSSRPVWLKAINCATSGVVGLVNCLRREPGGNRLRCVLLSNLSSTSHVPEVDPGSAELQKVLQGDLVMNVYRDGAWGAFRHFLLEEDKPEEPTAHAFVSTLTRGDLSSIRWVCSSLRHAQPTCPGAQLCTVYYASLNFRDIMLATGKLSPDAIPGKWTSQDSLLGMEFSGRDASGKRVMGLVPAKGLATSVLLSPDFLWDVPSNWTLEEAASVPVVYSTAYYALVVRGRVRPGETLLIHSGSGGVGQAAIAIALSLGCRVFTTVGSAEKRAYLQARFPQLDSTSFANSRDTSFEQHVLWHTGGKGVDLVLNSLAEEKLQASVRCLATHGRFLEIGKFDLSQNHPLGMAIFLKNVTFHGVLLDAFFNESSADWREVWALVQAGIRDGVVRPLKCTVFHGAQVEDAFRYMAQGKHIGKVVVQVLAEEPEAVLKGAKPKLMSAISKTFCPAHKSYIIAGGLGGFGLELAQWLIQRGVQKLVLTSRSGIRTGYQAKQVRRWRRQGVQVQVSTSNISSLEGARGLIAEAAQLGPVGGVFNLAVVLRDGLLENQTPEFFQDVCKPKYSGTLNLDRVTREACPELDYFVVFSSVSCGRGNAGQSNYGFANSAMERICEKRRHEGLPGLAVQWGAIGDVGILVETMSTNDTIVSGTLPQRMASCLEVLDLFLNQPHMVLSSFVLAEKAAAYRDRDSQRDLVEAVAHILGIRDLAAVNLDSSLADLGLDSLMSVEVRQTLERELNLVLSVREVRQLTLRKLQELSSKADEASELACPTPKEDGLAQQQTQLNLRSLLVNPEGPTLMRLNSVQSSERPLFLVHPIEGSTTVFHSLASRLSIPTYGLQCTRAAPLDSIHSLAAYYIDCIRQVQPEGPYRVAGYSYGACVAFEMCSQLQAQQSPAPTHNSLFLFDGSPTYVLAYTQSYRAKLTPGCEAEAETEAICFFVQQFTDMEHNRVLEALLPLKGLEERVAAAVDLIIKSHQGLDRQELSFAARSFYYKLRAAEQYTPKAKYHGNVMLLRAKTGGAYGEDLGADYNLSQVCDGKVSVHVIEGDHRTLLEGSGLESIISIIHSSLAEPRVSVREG
# [12] = Luminescence Cell-Based Dose Retest to Confirm Inhibitors of Cancer Stem Cells. [Related pubchem assays (depositor defined):AID2717, AID2721]; assay type: functional; conditions: Homo sapiens
# [13] = alpha-synuclein stem-loop luciferase translation blockers – H4 neuroglioma cells, luminescence, confirmation (AID 1988); assay type: functional, cell-based
# [14] = luciferase reporter signal suppression in cells – H4 neuroglioma cells, luminescence, dose response (AID 1990); assay type: functional, cell-based
# [15] = Luminescence Cell-Based Dose Response HTS to Identify Inhibitors of 5'UTR Stem-Loop Driven Prion Protein mRNA Translation in H4 Neuroglioblastoma Cells. [Related pubchem assays: 1827 (Project Summary), 1813 (Primary HTS)]; assay type: functional
structure (smiles),measurement,setting,value
CCNc1nc(Nc2ccc(C)c(Cl)c2)c2cnn(C)c2n1,CC50,[1],> 40 µM (active)
COc1cc(NC(=O)c2cc([N+](=O)[O-])ccc2NC(=O)CN2CCN(c3ccccn3)CC2)cc(OC)c1,IC50,[2],10.8 µM (active)
COc1ccc(NC(=S)N2CCC(N(C)CCN3CCOCC3)CC2)cc1Cl,EC50,[3],> 53 µM (inactive)
same,IC50,[4],> 47.1 µM (inactive)
Cc1ccc(S(=O)(=O)NNc2ccccc2)cc1,AC50,[5],28.2 µM (inconclusive)
same,IC50,[6],> 80 µM (inactive)
same,AC50,[7],0.623 µM (active)
CCOC(=O)c1c(NC(=O)COC(=O)c2ccc(O)cc2)sc(C(=O)N(C)C)c1C,IC50,[2],> 79 µM (inactive)
CCCNC(=O)Cn1sc2nc(C)cc(C)c2c1=O,IC50,[6],45.5 µM (inactive)
same,IC50,[8],5.41 µM (active)
same,EC50,[9],3.08 µM (active)
same,EC50,[10],9.56 µM (active)
COc1ccc(/C=C(\NC(=O)c2ccc([N+](=O)[O-])cc2)C(=O)NCCN2CCOCC2)cc1,IC50,[11],5.27 µM (active)
Cc1noc(NS(=O)(=O)c2ccc(N/C=C\C(=O)c3cccc4ccccc34)cc2)c1C,EC50,[3],> 53 µM (inactive)
same,IC50,[4],> 47.1 µM (inactive)
COc1cc(OC)c2ccc(=O)oc2c1C(CCN1CCOCC1)c1ccc2c(c1)OCO2 (stereo unspecified),EC50,[3],> 53 µM (inactive)
same,IC50,[4],> 47.1 µM (inactive)
CNc1nnc(S)s1,IC50,[8],17.6 µM (active)
COc1ccc2sc(-c3ccc(SC)cc3)c(C#CC(C)(C)O)c2c1,AC50,[12],2.26 µM (active)
Cn1c(=O)c2c(nc(NCCCO)n2C/C=C/c2ccccc2)n(C)c1=O,IC50,[2],> 79 µM (inactive)
COc1cc(/C=C(\C#N)c2nc3cc(C)ccc3[nH]2)c([N+](=O)[O-])cc1OC,IC50,[2],> 79 µM (inactive)
Cc1cccc(CN2C(=O)/C(=C\c3ccc(C(=O)NCCCN4CCN(C)CC4)cc3)Oc3ccccc32)c1,EC50,[13],> 120 µM (not active)
same,EC50,[14],10.6 µM (active)
same,EC50,[15],> 120 µM (not active)
same,AC50,[12],3.6 µM (active)
C=CCn1c(-c2cc(OC)cc(OC)c2)n[nH]c1=S,IC50,[8],8.23 µM (active)
COc1ccc2cc3cc(C(=O)N4CC(C)CC(C)C4)oc3nc2c1 (stereo unspecified),IC50,[11],3.88 µM (active)
CSc1nc2ncc3c(n2n1)CC1c2ccccc2CCN1C3=O (stereo unspecified),IC50,[2],15.1 µM (active)
CCC(CC)c1nnc(NC(=O)COc2ccc3c(c2)OCO3)s1,IC50,[8],53.2 µM (active)
O=C(c1ccccc1)c1nn(-c2ccc(Cl)cc2)cc1C(=O)c1cc2ccccc2oc1=O,EC50,[3],> 53 µM (inactive)
same,IC50,[4],> 47.1 µM (inactive)
